Measurements: patent US10463592B2, “Peptide with anti-aging effect and use thereof” (Osaka University, priority 2013, dated 2019)

Tests used:
[1] = system: Normal human dermal fibroblasts (NHDF); test: Fibroblast growth-promoting activity, Cell Counting Kit (WST-1); type: cell-based; settings: for Fibroblast growth (% of control): NHDF, 2 days culture, WST-1
Procedure: The fibroblast growth-promoting activity of the peptides was determined using Cell Counting Kit (WST-1) (Dojindo Laboratories). As a control, a group containing no peptide was used. Normal human dermal fibroblasts (from newborns) (Kurabo Industries Ltd., hereinafter called NHDF) were seeded in 96-well plates (0.5×10^4 cells/100 μL per well). The culture medium used was Medium 106 (containing 1% FBS without growth supplements). About 3 hours after cell seeding, 100 μL of a solution of each peptide in the culture medium was added to a final peptide concentration of 0.3, 1, 3, 10, or 30 μM. To control wells, 100 μL of the culture medium alone was added. To blank wells containing no cells, 200 μL of the culture medium alone was added. The cells were cultured in a CO2 incubator for 2 days. After the culture, 20 μL of the WST-1 reagent was added to each well and the plates were allowed to stand in a CO2 incubator for about 2 to 4 hours. The absorbance at 450 nm and 620 nm was determined with a microplate reader (Wallac 1420 ARVOsx (program: WST-1)), and the measured values were corrected by the equation: OD450-OD620. The net OD450 was calculated by subtracting the mean OD450-OD620 of the blank wells from the OD450-OD620 of the test wells. The percent fibroblast growth was calculated as the ratio (%) of the net OD450 of each peptide addition group to that of the control group. The effect of promoting fibroblast growth was evaluated on the basis of the percent fibroblast growth.
The examination was conducted in the same manner as in Example 2 except that the concentration of each peptide was set at 3, 10, 30, 100 or 300 μM.

NHDF (NB) cells = test: Hyaluronic acid production by fibroblasts, ELISA; type: cell-based, human; settings: for Hyaluronic acid production (% of control): highest value over 3, 10, 30, 100 and 300 μM, 5 days
Procedure: The amount of the hyaluronic acid production by fibroblasts was determined by ELISA. As a control, a group containing no peptide was used. NHDF (NB) cells were seeded in 24-well plates and cultured overnight (2×10^4 cells/500 μL per well). The culture medium used was Medium 106 (containing 1% FBS without growth supplements). Twenty hours after cell seeding, 500 μL of a solution of each peptide in the culture medium was added to each well to a final peptide concentration of 3, 10, 30, 100 or 300 μM. To control wells, 500 μL of the culture medium alone was added. The cells were cultured in a 5% CO2 incubator at 37° C. for 5 days. After the culture, the culture supernatant was transferred into a 1.5-mL tube and centrifuged at 15,000 rpm at 4° C. for 5 minutes, and the supernatant was harvested in a fresh tube. The amount of hyaluronic acid in the culture supernatant was determined using QnE Hyaluronic Acid (HA) ELISA Assay (Biotech Trading Partners) in accordance with the kit protocol. The percent hyaluronic acid production was calculated as the ratio (%) of the ELISA absorbance of each peptide addition group to that of the control group. The effect of promoting hyaluronic acid production was evaluated on the basis of the percent hyaluronic acid production.
The examination was conducted in the same manner as in Example 4 except that the percent hyaluronic acid production was determined as follows: the amount of hyaluronic acid was quantified from the ELISA calibration curve and the quantified value was used to calculate the ratio (%) of the amount of the hyaluronic acid production of each peptide addition group to that of the control group.

[2] = at concentrations of 0.3 to 30 μM (Example 2)
[3] = at concentrations of 30 to 300 μM (Example 3)
[4] = highest value over 0.3, 1, 3, 10 and 30 μM
[5] = highest value over 3, 10, 30, 100 and 300 μM
[6] = Example 4, 3 to 300 μM, ELISA absorbance ratio
[7] = Example 5, 3 to 300 μM, ELISA calibration curve
[8] = amount quantified from ELISA calibration curve (Example 5)
[9] = ratio of ELISA absorbance (Example 4)

Substance	effect of promoting fibroblast growth [1, 2]	effect of promoting fibroblast growth [1, 3]	Fibroblast growth (% of control) [1, 4]	Fibroblast growth (% of control) [1, 5]	increase of hyaluronic acid production by fibroblasts (NHDF (NB) cells; [6])	increase of hyaluronic acid production by fibroblasts (NHDF (NB) cells; [7])	Hyaluronic acid production (% of control) (NHDF (NB) cells; [8])	Hyaluronic acid production (% of control) (NHDF (NB) cells; [9])
LKRLR [OSK-11]	exhibited the effect of promoting fibroblast growth	exhibited the effect of promoting fibroblast growth	112.5 % of control	158.5 % of control	increased the amount of the hyaluronic acid production by fibroblasts	increased the amount of the hyaluronic acid production by fibroblasts	255.0 % of control	112.1 % of control
LHRLK (Ac-LHRLK-NH2) [OSK-8]			98.8 % of control		increased the amount of the hyaluronic acid production by fibroblasts			110.5 % of control
HRLKR [OSK-20]							94.0 % of control	
RLKRL [OSK-21]						increased the amount of the hyaluronic acid production by fibroblasts	109.3 % of control	
RLRKR (Ac-RLRKR-NH2) [OSK-13]			99.3 % of control					74.3 % of control
FLHRL (Ac-FLHRL-NH2) [OSK-7]			96.8 % of control					75.2 % of control
RLKR [OSK-22]						increased the amount of the hyaluronic acid production by fibroblasts	101.1 % of control	
RLKR [OSK-18] (Ac-RLKR-NH2)						increased the amount of the hyaluronic acid production by fibroblasts	131.9 % of control	
RLKRL [OSK-10]	exhibited the effect of promoting fibroblast growth	exhibited the effect of promoting fibroblast growth	116.2 % of control	149.9 % of control	increased the amount of the hyaluronic acid production by fibroblasts	increased the amount of the hyaluronic acid production by fibroblasts	409.1 % of control	198.2 % of control
KLIFL (Ac-KLIFL-NH2) [OSK-4]	exhibited the effect of promoting fibroblast growth		102.6 % of control		increased the amount of the hyaluronic acid production by fibroblasts			212.4 % of control
LRKRL (Ac-LRKRL-NH2) [OSK-14]	exhibited the effect of promoting fibroblast growth		106.8 % of control		increased the amount of the hyaluronic acid production by fibroblasts			123.6 % of control
KRLRK (Ac-KRLRK-NH2) [OSK-12]	exhibited the effect of promoting fibroblast growth		100.3 % of control					72.0 % of control
ELKLIFLHRLKRLRKRLKRK (Ac-ELKLIFLHRLKRLRKRLKRK-NH2) [OSK-1]	exhibited the effect of promoting fibroblast growth	exhibited the effect of promoting fibroblast growth	146.4 % of control	144.9 % of control		increased the amount of the hyaluronic acid production by fibroblasts	2715.8 % of control	
LKLIF (Ac-LKLIF-NH2) [OSK-3]	exhibited the effect of promoting fibroblast growth		104.7 % of control					79.9 % of control
RKRLK (Ac-RKRLK-NH2) [OSK-15]	exhibited the effect of promoting fibroblast growth		102.9 % of control		increased the amount of the hyaluronic acid production by fibroblasts			103.9 % of control
LIFLH (Ac-LIFLH-NH2) [OSK-5]			97.6 % of control					65.6 % of control
LKR [OSK-23]						increased the amount of the hyaluronic acid production by fibroblasts	113.7 % of control	
ELKLI (Ac-ELKLI-NH2) [OSK-2]			99.7 % of control		increased the amount of the hyaluronic acid production by fibroblasts			184.0 % of control
RLKRK (Ac-RLKRK-NH2) [OSK-17]	exhibited the effect of promoting fibroblast growth		104.2 % of control					81.8 % of control
KRLKR (Ac-KRLKR-NH2) [OSK-16]	exhibited the effect of promoting fibroblast growth		106.1 % of control		increased the amount of the hyaluronic acid production by fibroblasts			110.6 % of control
LKR [OSK-19] (Ac-Leu-Lys-Arg-NH2)						increased the amount of the hyaluronic acid production by fibroblasts	117.6 % of control	
